The subject of series [1] is adult engorged female ticks (Boophilus microplus). Kind of series: Boophilus microplus injection test (BOOPMI Inj). The series is classed as in vivo. The conditions noted are these: 20 μg/animal, egg deposition after 7 days. As for the experimental part:
Boophilus microplus—Injectiontest (BOOPMI Inj)
(§1) Solvent: dimethyl sulfoxide
Five adult engorged female ticks (Boophilus microplus) are injected with 1 μl compound solution into the abdomen. The ticks are transferred into replica plates and incubated in a climate chamber.
(§2) After 7 days egg deposition of fertile eggs is monitored. Eggs where fertility is not visible are stored in a climate chamber till hatching after about 42 days. An efficacy of 100% means all eggs are infertile; 0% means all eggs are fertile.

In series [2] the test system is cattle ticks (Boophilus microplus) strane Parhurst, SP-resistant. Description: Boophilus microplus dip test (BOOPMI Dip). As to conditions: 100 ppm, egg deposition after 7 days. The class given is in vivo.
Excerpt: Boophilus microplus—Diptest (BOOPMI Dip)
Test animal: cattle ticks (Boophilus microplus) strane Parhurst, SP-resistant
as §1
This compound solution is pipetted into tubes. 8-10 engorged, adult, female cattle ticks (Boophilus microplus) are placed in perforated tubes. These tubes are immersed in the aqueous compound solution until the ticks are completely moistened. After the liquid has drained off, the ticks are transferred to a filter paper in a plastic tray and stored in a climate chamber.
as §2

Series [3] has as its system Tick nymphs (Amblyomma hebraeum). Kind of series: Amblyomma hebraeum test (AMBYHE). The class given is in vivo. The conditions noted are these: 100 ppm, after 42 days. How it is done: Amblyomma hebraeum—Test (AMBYHE)
as §1
Tick nymphs (Amblyomma hebraeum) are placed in perforated plastic beakers and immersed in the aqueous compound solution for one minute. Ticks are transferred to a filter paper in a petridish and incubated in a climate chamber.

The subject of series [4] is fall armyworm larvae (Spodoptera frugiperda). Description: Spodoptera frugiperda spray test (maize leaf sections). The series is classed as in vivo. As to conditions: 100 g/ha, after 7 days. An excerpt: Spodoptera frugiperda—Spray Test
Solvent: 78.0 parts by weight acetone
• 1.5 parts by weight dimethylformamide Emulsifier: alkylarylpolyglycol ether
Maize (Zea mays) leaf sections are sprayed with a preparation of the active ingredient of the desired concentration. Once dry, the leaf sections are infested with fall armyworm larvae (Spodoptera frugiperda).

For series [5], the system named is adult cat fleas (Ctenocephalides felis). Kind of series: Ctenocephalides felis in-vitro contact test, adult cat flea. The class given is in vivo. The conditions noted are these: 5 μg/cm^2 (=500 g/ha), after 48 hours. How it is done: Ctenocephalides felis—In-Vitro Contact Tests Adult Cat Flea
9 mg compound is solved in 1 ml acetone and diluted with acetone to the desired concentration. 250 μl of the test solution is filled in 25 ml glass test tubes and homogeneously distributed on the inner walls by rotation and tilting on a shaking device (2 h at 30 rpm). With a compound concentration of 900 ppm, an inner surface of 44.7 cm^2 and a homogeneous distribution, a dose of 5 μg/cm^2 is achieved.
After the solvent has evaporated, each test tube is filled with 5-10 adult cat fleas (Ctenocephalides felis), closed with a perforated lid and incubated in a lying position at room temperature and relative humidity. After 48 hours efficacy is determined. The fleas are patted on the ground of the tubes and are incubated on a heating plate at 45-50° C. for at most 5 minutes. Immotile or uncoordinated moving fleas, which are not able to escape the heat by climbing upwards, are marked as dead or moribund.
An efficacy of 100% means all fleas are dead or moribund; 0% means no fleas are dead or moribund.

Series [6] is described as follows: logP determination by HPLC on reversed-phase column (C18), EEC Directive 79/831 Annex V.A8. The class given is physicochemical. As to conditions: reversed-phase C18, acetonitrile/water with formic acid; for chromatographic logP: reversed-phase C18 HPLC column.
Series [7] deals with adult house flies (Musca domestica). Description: Musca domestica test (MUSCDO). As to conditions: 100 ppm, after 2 days. The series is classed as in vivo.
Excerpt: Musca domestica—Test (MUSCDO)
as §1
10 adult house flies (Musca domestica) are transferred into a container, containing a sponge soaked with a mixture of sugar solution and compound solution of the desired concentration.

Series [8] deals with two-spotted spider mite (Tetranychus urticae). Kind of series: Tetranychus urticae spray test; OP-resistant (bean plants). The series is classed as in vivo. The conditions noted are these: after 7 days.

The term logP denotes a log measure of how a compound divides between an organic and an aqueous phase. High values mean higher lipophilicity, low ones lower lipophilicity. As for `Cn1nc(C(F)(F)C(F)(F)F)c(S(C)(=O)=O)c1-n1cc(-c2ccc(Cl)c(C(=O)NC3CC3)c2)cn1` [Example I-07], the “efficacy (infertile eggs)” value in series [1] and in series [2] was 100% each time. The mortality in % in series [3], in series [4] and in series [7] was 100% in each case. In series [5], the “efficacy (fleas dead or moribund)” value was 100%. The lipophilicity (logP) in series [6] was 2.78.

In turn, `CSc1c(C(F)(F)C(F)(F)F)nn(C)c1-n1cc(-c2cnc(Cl)c(C(=O)N(C)C3CC3)c2)cn1` [Example I-19] showed a logP in series [6] of 3.67.

On to `CCSc1c(C(F)(F)C(F)(F)F)nn(C)c1-n1cc(-c2ccc(Cl)c(C(=O)NC3CC3)c2)cn1` [Example I-11], for which the “efficacy (infertile eggs)” value in series [1] and in series [2] was 100% each time. The mortality in % in series [3], in series [4] and in series [7] was 100% each time. This compound yielded a logP in series [6] of 3.85.

Regarding `Cn1nc(C(F)(F)C(F)(F)F)c([S+](C)[O-])c1-n1cc(-c2ccc(Cl)c(C(=O)NC3(C#N)CC3)c2)cn1` (racemic) [Example I-03], in series [1], the “efficacy (infertile eggs)” value was determined as 100%. In addition, the “efficacy (fleas dead or moribund)” value in series [5] was determined as 100%. Further, the logP in series [6] came to 2.61. In series [7], this compound returned a mortality in % of 100%.

Consider `Cn1nc(C(F)(F)C(F)(F)F)c(S(C)(=O)=O)c1-n1cc(-c2ccc(Cl)c(C(=O)NC3(C#N)CC3)c2)cn1` [Example I-04], for which the “efficacy (infertile eggs)” value in series [1] is 100%. In series [6], the logP worked out at 2.77. This compound also showed a mortality in % in series [7] of 100%.

For the compound `Cn1nc(C(F)(F)C(F)(F)F)c([S+](C)[O-])c1-n1cc(-c2ccc(Cl)c(C(=O)NC3(C#N)CC3)c2)cn1` (single isomer, unassigned) [Example I-21], in series [6], the logP stood at 2.59.

For `CC[S+]([O-])c1c(C(F)(F)C(F)(F)F)nn(C)c1-n1cc(-c2ccc(Cl)c(C(=O)NC3(C#N)CC3)c2)cn1` (stereo not drawn) [Example I-25], in series [8] (4 ppm), the mortality in % is on record as 95%. In series [6], this compound showed a logP of 2.84.

`CSc1c(C(F)(F)C(F)(F)F)nn(C)c1-n1cc(-c2ccc(C)c(C(=O)NC3(C#N)CC3)c2)cn1` [Example I-16] yielded a logP in series [6] of 3.55.

For `Cn1nc(C(F)(F)C(F)(F)F)c([S+](C)[O-])c1-n1cc(-c2ccc(Cl)c(C(=O)NC3(C#N)CC3)c2)cn1` (single isomer, unassigned) [Example I-08], the logP in series [6] is listed as 2.59.

In series [6], `CSc1c(C(F)(F)C(F)(F)F)nn(C)c1-n1cc(-c2ccc(C)c(C(=O)NC3CC3)c2)cn1` [Example I-17] yielded a logP of 3.64.

The term chromatographic logP denotes lipophilicity estimated from chromatographic retention. Read a low chromatographic logP as a more hydrophilic compound. For the compound `Cn1nc(C(F)(F)C(F)(F)F)c(N)c1-n1cc(Br)cn1` [Example 14, 4-bromo-2′-methyl-5′-(pentafluoroethyl)-2′H-1,3′-bipyrazol-4′-amine], the chromatographic logP in series [6] is 2.68.

`CSc1c(C(F)(F)C(F)(F)F)nn(C)c1-n1cc(Br)cn1` [Example 15, 4-bromo-2′-methyl-4′-(methylsulfanyl)-5′-(pentafluoroethyl)-2′H-1,3′-bipyrazole] displayed a chromatographic logP in series [6] of 3.95.

Consider `Cc1ncc(-c2cnn(-c3c([S+](C)[O-])c(C(F)(F)C(F)(F)F)nn3C)c2)cc1C(=O)NC1CC1` (stereo not drawn) [Example I-14], for which the logP in series [6] was 1.85.

As to `CC[S+]([O-])c1c(C(F)(F)C(F)(F)F)nn(C)c1-n1cc(-c2ccc(Cl)c(C(=O)NC3CC3)c2)cn1` (stereo not drawn) [Example I-22], the logP in series [6] turned out to be 2.88.

Regarding `Cc1ncc(-c2cnn(-c3c([S+](C)[O-])c(C(F)(F)C(F)(F)F)nn3C)c2)cc1C(=O)NC1(C#N)CC1` (stereo not drawn) [Example I-10], in series [6], the log partition coefficient (logP) was found to be 1.99.

Turning to `Cn1nc(C(F)(F)F)c([S+](C)[O-])c1-n1cc(-c2ccc(Cl)c(C(=O)NC3(C#N)CC3)c2)cn1` (stereo not drawn) [Example I-01], the mortality in % in series [8] (20 ppm) came to 100%. The same compound yielded a logP in series [6] of 2.16.

On to `Cc1ccc(-c2cnn(-c3c([S+](C)[O-])c(C(F)(F)C(F)(F)F)nn3C)c2)cc1C(=O)NC1(C#N)CC1` (stereo not drawn) [Example I-24], for which the “efficacy (infertile eggs)” value in series [1] was determined as 100%. In series [6], the logP is listed as 2.57.

The values above are taken from patent publication US9936699B2, “Halogen-substituted compounds” (BAYER CROPSCIENCE AKTIENGESELLSCHAFT, priority 2014, dated 2018).
